Results published in ChEMBL document CHEMBL5356958, “Discovery of a Highly Potent and Selective MYOF Inhibitor with Improved Water Solubility for the Treatment of Gastric Cancer” (J Med Chem, 2023).
Converted amounts (≈) assume the structure as drawn. The source made the active and inactive calls. No cut-off for these calls is given here.

Tests used:
[1] = Aqueous solubility of compound in PBS at pH 9; assay type: physicochemical
Myoferlin = Myoferlin (Homo sapiens, UniProt Q9NZM1); experiment: Binding affinity to MYOF in human MKN45 cells at 50 to 100 uM incubated for 1 hr by CETSA; assay type: cell-based; settings: MKN-45, dose 50-100 µM
Chain of Myoferlin (Q9NZM1 whole entry): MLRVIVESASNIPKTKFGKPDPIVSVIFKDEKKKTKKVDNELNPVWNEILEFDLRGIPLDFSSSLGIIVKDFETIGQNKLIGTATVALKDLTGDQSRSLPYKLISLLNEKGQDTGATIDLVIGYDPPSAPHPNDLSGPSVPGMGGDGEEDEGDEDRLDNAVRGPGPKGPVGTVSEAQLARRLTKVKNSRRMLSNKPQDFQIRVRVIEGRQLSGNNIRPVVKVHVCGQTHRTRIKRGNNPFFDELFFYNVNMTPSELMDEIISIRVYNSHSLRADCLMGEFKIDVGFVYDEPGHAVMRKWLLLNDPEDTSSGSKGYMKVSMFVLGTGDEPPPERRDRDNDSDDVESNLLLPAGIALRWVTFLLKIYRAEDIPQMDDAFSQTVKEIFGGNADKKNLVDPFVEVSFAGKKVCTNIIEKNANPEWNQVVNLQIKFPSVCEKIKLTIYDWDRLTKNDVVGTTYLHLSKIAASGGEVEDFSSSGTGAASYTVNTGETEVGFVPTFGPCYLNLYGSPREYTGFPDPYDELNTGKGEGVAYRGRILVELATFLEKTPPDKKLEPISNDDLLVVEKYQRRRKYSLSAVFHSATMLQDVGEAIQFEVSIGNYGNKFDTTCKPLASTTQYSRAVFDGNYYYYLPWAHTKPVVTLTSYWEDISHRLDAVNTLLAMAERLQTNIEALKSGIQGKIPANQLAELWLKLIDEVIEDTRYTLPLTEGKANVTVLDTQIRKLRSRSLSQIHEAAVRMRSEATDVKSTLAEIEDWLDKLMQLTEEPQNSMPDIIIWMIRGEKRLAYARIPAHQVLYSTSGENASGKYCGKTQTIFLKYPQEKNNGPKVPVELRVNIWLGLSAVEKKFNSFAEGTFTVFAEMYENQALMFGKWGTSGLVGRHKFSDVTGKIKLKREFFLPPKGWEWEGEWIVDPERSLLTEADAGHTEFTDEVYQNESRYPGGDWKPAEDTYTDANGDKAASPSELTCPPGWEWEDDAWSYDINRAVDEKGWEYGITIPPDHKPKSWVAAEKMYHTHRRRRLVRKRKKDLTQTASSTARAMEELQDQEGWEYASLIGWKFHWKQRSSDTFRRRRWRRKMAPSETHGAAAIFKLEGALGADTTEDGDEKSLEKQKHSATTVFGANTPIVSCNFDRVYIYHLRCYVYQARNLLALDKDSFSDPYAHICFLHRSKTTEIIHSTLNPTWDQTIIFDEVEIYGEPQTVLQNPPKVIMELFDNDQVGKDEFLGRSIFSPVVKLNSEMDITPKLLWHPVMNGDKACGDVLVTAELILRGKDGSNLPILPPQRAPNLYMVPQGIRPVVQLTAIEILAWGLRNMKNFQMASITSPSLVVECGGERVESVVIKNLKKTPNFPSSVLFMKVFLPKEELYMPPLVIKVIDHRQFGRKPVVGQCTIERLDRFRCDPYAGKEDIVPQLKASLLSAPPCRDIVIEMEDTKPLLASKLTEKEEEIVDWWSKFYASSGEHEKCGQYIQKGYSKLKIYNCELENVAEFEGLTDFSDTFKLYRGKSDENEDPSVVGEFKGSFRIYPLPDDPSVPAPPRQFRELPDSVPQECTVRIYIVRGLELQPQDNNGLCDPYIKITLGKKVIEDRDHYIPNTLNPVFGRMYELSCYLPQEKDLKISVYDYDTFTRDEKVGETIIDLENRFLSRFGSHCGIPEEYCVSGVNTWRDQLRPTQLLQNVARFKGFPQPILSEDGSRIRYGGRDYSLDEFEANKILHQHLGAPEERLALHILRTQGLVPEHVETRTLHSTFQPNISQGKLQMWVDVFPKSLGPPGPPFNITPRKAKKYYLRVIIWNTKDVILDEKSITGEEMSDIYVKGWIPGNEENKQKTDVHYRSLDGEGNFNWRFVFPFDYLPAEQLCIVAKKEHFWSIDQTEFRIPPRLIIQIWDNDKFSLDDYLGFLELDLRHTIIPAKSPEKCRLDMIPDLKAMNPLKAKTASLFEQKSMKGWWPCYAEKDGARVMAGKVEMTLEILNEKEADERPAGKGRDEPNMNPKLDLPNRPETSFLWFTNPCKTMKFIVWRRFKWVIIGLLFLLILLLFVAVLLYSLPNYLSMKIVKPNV

ES-2 = experiment: Antiproliferative activity against human ES2 cells incubated for 48 hrs by SRB assay; assay type: functional, cell-based; settings: ES-2, 48 h
SK-HEP1 = experiment: Antiproliferative activity against human SK-HEP1 cells incubated for 48 hrs by SRB assay; assay type: functional, cell-based; settings: SK-HEP1, 48 h
CWR22R = experiment: Antiproliferative activity against human 22Rv1 cells incubated for 48 hrs by SRB assay; assay type: functional, cell-based; settings: 22Rv1, 48 h
[2] = Antiproliferative activity against HAF cells incubated for 48 hrs by SRB assay; assay type: functional, cell-based; settings: Homo sapiens
MKN-45 [3] = experiment: Inhibition of epithelial mesenchymal transition in human MKN-45 cells assessed as downregulation in vimentin level by Western blotting analysis; assay type: functional, cell-based
MKN-45 [4] = experiment: Inhibition of epithelial mesenchymal transition in human MKN-45 cells assessed as downregulation in N-cadherin level by Western blotting analysis; assay type: functional, cell-based
CYP1A = CYP1A (Homo sapiens, UniProt P04798+P05177); experiment: Inhibition of CYP1A in human liver microsomes; assay type: ADME, Microsome
Cytochrome P450 3A4 = Cytochrome P450 3A4 (Homo sapiens, UniProt P08684); experiment: Inhibition of CYP3A4 in human liver microsomes; assay type: ADME, Microsome
Chain of Cytochrome P450 3A4 (P08684 whole entry): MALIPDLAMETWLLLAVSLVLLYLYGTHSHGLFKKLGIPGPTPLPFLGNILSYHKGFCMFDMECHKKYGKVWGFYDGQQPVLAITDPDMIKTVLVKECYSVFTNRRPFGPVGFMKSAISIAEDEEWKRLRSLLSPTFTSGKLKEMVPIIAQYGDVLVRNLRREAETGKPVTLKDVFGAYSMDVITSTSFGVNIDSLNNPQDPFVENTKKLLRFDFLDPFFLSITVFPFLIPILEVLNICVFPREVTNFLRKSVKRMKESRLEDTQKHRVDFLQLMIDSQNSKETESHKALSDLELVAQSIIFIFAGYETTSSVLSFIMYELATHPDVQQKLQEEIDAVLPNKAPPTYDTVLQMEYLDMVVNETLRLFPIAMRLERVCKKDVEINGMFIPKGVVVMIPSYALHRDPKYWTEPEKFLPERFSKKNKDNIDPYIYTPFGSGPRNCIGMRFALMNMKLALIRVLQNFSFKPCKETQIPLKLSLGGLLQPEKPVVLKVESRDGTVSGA

[5] = Cmax in ICR mouse at 1 mg/kg, iv; assay type: ADME, organism-based; set-up: dose 1 mg/kg, route iv; settings: in vivo
[6] = AUC(0 to infinity) in ICR mouse at 10 mg/kg, po; assay type: ADME, organism-based; set-up: dose 10 mg/kg, route po; settings: in vivo
[7] = Half life in ICR mouse at 10 mg/kg, po; assay type: ADME, organism-based; settings: in vivo
[8] = Mean residence time in ICR mouse at 1 mg/kg, iv; assay type: ADME, organism-based; settings: in vivo
[9] = Oral bioavailability in ICR mouse at 10 mg/kg; assay type: ADME, organism-based; settings: in vivo
[10] = Toxicity in BALB/c mouse assessed as change in kidney morphology at 15 to 30 mg/kg, ip measured every 3 days for 21 days by HE staining based assay; assay type: organism-based; settings: in vivo, 504 h, dose 15-30 mg/kg, time 21 day

Question: What does the source list for `CCc1nc(-c2ccc(OC)cc2)n(-c2cccc(C(=O)NCCCCn3nccn3)c2)n1`?
Answer: solubility [1]: 258 µM (≈ 115 µg/mL); Activity (Myoferlin): Active; IC50 (ES-2): 0.28 µM; IC50 (SK-HEP1): 0.75 µM; IC50 (CWR22R): > 10 µM; IC50 [2]: > 10 µM; inhibition (MKN-45 [3]): Dose-Dependent Effect; inhibition (MKN-45 [4]): Dose-Dependent Effect; IC50 (CYP1A): > 50 µM; IC50 (Cytochrome P450 3A4): 35.1 µM; Cmax [5]: 1910 ng/mL; AUC(0-inf) [6]: 4940 ng·h/mL; half-life [7]: 38.4 min; MRT [8]: 17.2 min; bioavailability [9]: 65.5%; Activity [10]: Non-Toxic
